Reference: US9150574B2, “Enzyme inhibitor compounds” (Proximagen Limited, priority 2011, dated 2015)
Structures can show the parent of a compound that is named as a salt.

Each compound was assayed against T1, purified recombinantly expressed human SSAO (Homo sapiens, UniProt Q16853) (assay: SSAO enzyme inhibition assay (benzylamine substrate; hydrogen peroxide/HRP-coupled or 14C aldehyde detection)). Conditions: human recombinant SSAO, RT, benzylamine as substrate; read-out: SSAO inhibitory activity IC50.
T1 construct: made in house
T1 sequence (Q16853 29-763 limits assumed): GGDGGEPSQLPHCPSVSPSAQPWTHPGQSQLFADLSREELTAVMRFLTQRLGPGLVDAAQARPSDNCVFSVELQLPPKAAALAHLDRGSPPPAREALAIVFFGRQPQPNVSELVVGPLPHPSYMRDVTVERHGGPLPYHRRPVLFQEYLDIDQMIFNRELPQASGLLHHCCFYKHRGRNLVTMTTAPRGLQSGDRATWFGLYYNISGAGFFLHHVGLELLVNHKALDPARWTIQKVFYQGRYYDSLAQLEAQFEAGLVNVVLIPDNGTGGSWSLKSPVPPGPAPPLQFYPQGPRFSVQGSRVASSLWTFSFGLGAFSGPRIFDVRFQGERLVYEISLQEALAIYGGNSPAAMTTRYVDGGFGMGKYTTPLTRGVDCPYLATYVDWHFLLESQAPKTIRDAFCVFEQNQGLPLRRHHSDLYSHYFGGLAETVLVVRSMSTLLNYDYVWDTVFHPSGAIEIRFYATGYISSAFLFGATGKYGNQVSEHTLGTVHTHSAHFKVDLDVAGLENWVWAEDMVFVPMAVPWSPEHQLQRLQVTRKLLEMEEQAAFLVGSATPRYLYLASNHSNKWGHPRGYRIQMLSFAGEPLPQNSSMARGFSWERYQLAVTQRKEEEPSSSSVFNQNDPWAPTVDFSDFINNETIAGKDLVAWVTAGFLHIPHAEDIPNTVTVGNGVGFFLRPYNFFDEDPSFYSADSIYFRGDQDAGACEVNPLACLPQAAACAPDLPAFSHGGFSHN
Assay type: biochemical
Protocol: All primary assays were performed at RT. with purified recombinantly expressed human SSAO. Enzyme was prepared essentially as described in Ohman et al. (Protein Expression and Purification 46 (2006) 321 331). In addition, secondary- and selectivity assays were performed using SSAO prepared from various tissues or purified rat recombinant SSAO. The enzyme activity was assayed with benzylamine as substrate by measuring either benzaldehyde production, using ^14C-labeled substrate, or by utilizing the production of hydrogen peroxide in a horseradish peroxidase (HRP) coupled reaction. Briefly, test compounds were dissolved in dimethyl sulfoxide (DMSO) to a concentration of 10 mM. Dose-response measurements were assayed by either creating 1:10 serial dilutions in DMSO to produce a 7 point curve or by making 1:3 serial dilutions in DMSO to produce 11 point curves. The top concentrations were adjusted depending on the potency of the compounds and subsequent dilution in reaction buffer yielded a final DMSO concentration ≦2%.
In a horseradish peroxidase (HRP) coupled reaction, hydrogen peroxide oxidation of 10-acetyl-3,7-dihydroxyphenoxazine produced resorufin, which is a highly fluorescent compound (Zhout and Panchuk-Voloshina. Analytical Biochemistry 253 (1997) 169-174; Amplex® Red Hydrogen Peroxide/peroxidase Assay kit, Invitrogen A22188). Enzyme and compounds in 50 mM sodium phosphate, pH 7.4 were set to pre-incubate in flat-bottomed microtiter plates for approximately 15 minutes before initiating the reaction by addition of a mixture of HRP, benzylamine and Amplex reagent. Benzylamine concentration was fixed at a concentration corresponding to the Michaelis constant, determined using standard procedures. Fluorescence intensity was then measured at several time points during 1-2 hours, exciting at 544 nm and reading the emission at 590 nm. For the human SSAO assay final concentrations of the reagents in the assay wells were: SSAO enzyme 1 μg/ml, benzylamine 100 μM, Amplex reagent 20 μM, HRP 0.1 U/mL and varying concentrations of test compound. The inhibition was measured as % decrease of the signal compared to a control without inhibitor (only diluted DMSO). The background signal from a sample containing no SSAO enzyme was subtracted from all data points. Data was fitted to a four parameter logistic model and IC50 values were calculated using the GraphPad Prism 4 or XLfit 4 programs.
SSAO activity was assayed using 14C-labeled benzylamine and analysed by measuring radioactive benzaldehyde. In a white 96-well optiplate (Packard), 20 μL of diluted test compound was pre-incubated at RT. with 20 μL SSAO enzyme for approximately 15 minutes with continuous agitation. All dilutions were made with PBS. The reaction was initiated by adding 20 μL of the benzylamine substrate solution containing [7-14C] Benzylamine hydrochloride (CFA589, GE Healthcare). The plate was incubated for 1 hour as above after which the reaction was stopped by acidification (10 μL 1 M HCl). Then 90 μL Micro Scint-E solution (Perkin-Elmer) was added to each well and the plate was continuously mixed for 15 minutes. Phase separation occurred instantly and activity was read in a Topcount scintillation counter (Perkin-Elmer). In the final reaction well, the human recombinant SSAO concentration was 10 μg/ml. In order to optimize sensitivity, the substrate concentration was decreased as compared to the HRP coupled assay in order to get a higher fraction of radioactive product. In the human SSAO assay, benzylamine concentration was 40 μM (0.2 μCi/mL). Data was analysed as above.

Structure (SMILES) | IC50
O=C(C1CCN(c2nn(-c3ccc(Cl)cc3)c3cnccc23)CC1)N1CCNCC1 [Example 16, 1-({1-[1-(4-Chlorophenyl)-1H-pyrazolo[3,4-c]pyridin-3-yl]piperidin-4-yl}carbonyl)piperazine dihydrochloride] | 100 to 500 nM
Cc1ccc(-n2nc(N3CCOCC3CO)c3ccncc32)cc1 (stereo not drawn) [Example 17, {4-[1-(4-Methylphenyl)-1H-pyrazolo[3,4-c]pyridin-3-yl]morpholin-3-yl}methanol] | < 100 nM
Cc1ccc(-n2nc(N3CCOC(CO)C3)c3ccncc32)cc1 (stereo not drawn) [Example 18, {4-[1-(4-Methylphenyl)-1H-pyrazolo[3,4-c]pyridin-3-yl]morpholin-2-yl}methanol] | < 100 nM
OC[C@@H]1COCCN1c1nn(-c2ccc(Cl)cc2)c2cnccc12 [Example 19, [(3R)-4-[1-(4-Chlorophenyl)-1H-pyrazolo[3,4-c]pyridin-3-yl]morpholin-3-yl]methanol] | < 100 nM
COC(=O)C1COCCN1c1nn(-c2ccc(Cl)cc2)c2cnccc12 (stereo not drawn) [Example 20, Methyl 4-[1-(4-chlorophenyl)-1H-pyrazolo[3,4-c]pyridin-3-yl]morpholine-3-carboxylate] | 100 to 500 nM
NCCNC(=O)C1COCCN1c1nn(-c2ccc(Cl)cc2)c2cnccc12 (stereo not drawn) [Example 21, N-(2-Aminoethyl)-4-[1-(4-chlorophenyl)-1H-pyrazolo[3,4-c]pyridin-3-yl]morpholine-3-carboxamide] | < 100 nM
OCCC1COCCN1c1nn(-c2ccc(Cl)cc2)c2cnccc12 (stereo not drawn) [Example 22, 2-{4-[1-(4-Chlorophenyl)-1H-pyrazolo[3,4-c]pyridin-3-yl]morpholin-3-yl}ethan-1-ol] | < 100 nM
COC(=O)C1CCCCN1c1nn(-c2ccc(Cl)cc2)c2cnccc12 (stereo not drawn) [Example 23, Methyl 1-[1-(4-chlorophenyl)-1H-pyrazolo[3,4-c]pyridin-3-yl]piperidine-2-carboxylate] | 500 to 2500 nM
NCCNC(=O)C1CCCCN1c1nn(-c2ccc(Cl)cc2)c2cnccc12 (stereo not drawn) [Example 24, N-(2-Aminoethyl)-1-[1-(4-chlorophenyl)-1H-pyrazolo[3,4-c]pyridin-3-yl]piperidine-2-carboxamide dihydrochloride] | < 100 nM
O=C(C1CCCCN1c1nn(-c2ccc(Cl)cc2)c2cnccc12)N1CCNCC1 (stereo not drawn) [Example 25, 1-({1-[1-(4-Chlorophenyl)-1H-pyrazolo[3,4-c]pyridin-3-yl]piperidin-2-yl}carbonyl) piperazine] | < 100 nM
Cc1ccc(-n2cc(N3CCOCC3)c3ccncc32)cc1 [Example 26, 4-[1-(4-Methylphenyl)-1H-pyrrolo[2,3-c]pyridin-3-yl]morpholine] | 100 to 500 nM
Oc1cncc2c1c(C1CCNCC1)cn2-c1ccc(Cl)cc1 [Example 27, 1-(4-Chlorophenyl)-3-(piperidin-4-yl)-1H-pyrrolo[2,3-c]pyridin-4-ol] | < 100 nM
CCCCN(C)c1nn(-c2ccc(Cl)cc2)c2cnccc12 [Example 28, N-Butyl-1-(4-chlorophenyl)-N-methyl-1H-pyrazolo[3,4-c]pyridin-3-amine] | 500 to 2500 nM
FCc1ccc(-n2nc(C3CCOCC3)c3ccncc32)cc1 [Example 29, 1-[4-(Fluoromethyl)phenyl]-3-(oxan-4-yl)-1H-pyrazolo[3,4-c]pyridine] | 100 to 500 nM
Clc1ccc(-n2nc(C3CCN(Cc4cccnc4)CC3)c3ccncc32)cc1 [Example 30, 3-({4-[1-(4-Chlorophenyl)-1H-pyrazolo[3,4-c]pyridin-3-yl]piperidin-1-yl}methyl)pyridine] | 100 to 500 nM
